Results from US20130039956A1, “USE OF NITROCARBOXYLIC ACIDS FOR THE TREATMENT, DIAGNOSIS AND PROPHYLAXIS OF AGGRESSIVE HEALING PATTERNS” (priority 2010, published 2013).

Assays:
[1] = system: Murine macrophage-like cells RAW 264.7 and murine L929 fibroblasts; test: Monocyte/fibroblast co-culture on coated surgical suture material; assay type: cell-based; settings: dip-coated suture material, 24 and 48 hours; compared with native FA
Source text: In order to determine immunoreactions to foreign material and its consequence on fibrogenesis, co-cultures of fibroblasts and monocytes were used. Commercially available suture materials (propylene, polyamide, and silk) were dip-coated with corresponding native and nitrated fatty acids. Untreated suture material served as control. Treated and untreated suture materials were out in small pieces and placed in a 96-well plate.
Murine macrophage-like cells RAW 264.7 and murine L929 fibroblasts were cultured to a population density of 5×10(5) each. Cell suspensions were merged achieving a cellularity of approximately 2.5×10(5) cell/ml of each cell population which were added to the wells. The suture material samples were fully covered by the suspension. Wells were continuously and gently shaken throughout the incubation period.
Supernatants were collected for assays after 24 and 48 hours and analyzed for profibrotic cytokines IL-13, IL-4, and IL-6, TGF-β1, collagen I.

adult rats = test: Fibrogenesis after traumatic and thermal tissue damage in dermal wound healing in vivo; parameters: species or system rat; settings: 100 micromol ethanolic solution on wound margins, 8 weeks, compared with native FA
Source text: In order to determine the effects of nitrated fatty acids on fibrogenesis in response to traumatic and thermal tissue damage, an in vivo rat model was investigated. Paravertebral scalpel incision (two on each side) of approximately 1 cm in length and a depth of 1 mm were made in 12 anesthetized adult rats (150-200 g) of either sex after disinfection. Bleeding was stopped by manual compression. The entire length of the wound margins of one incision at each side were additionally cauterized using a 3-mm ball electrode connected to a DRE ASG-120 electrosurgical generator. Wound margins of one side were then covered with a sterile ethanolic 0.9% saline solution, or with a sterile ethanolic solution of the fatty acids (100 micromol), or with a sterile ethanolic solution of the nitrated fatty acids (100 micromol) using a sterile brush. A 1×10 mm cotton string that was bathed in the ethanolic solution containing 0.9% saline, native fatty acid or nitrated fatty acids was placed upon the incision site that had been closed by manual adaptation. The adaptation result and the cotton strings were fixed by an adhesive film. The animals were housed and fed according to institutional standards. The wound films were carefully removed after 2 weeks. Animals were euthanized after 8 weeks. The skin wounds were harvested, including the epidermis, dermis, and subcutaneous loose tissue with the surrounding normal tissue. The removed tissues were fixed in formalin and then embedded in paraffin. The cutting plane was vertical to the longitudinal axis of the former incisions. Slices (4-6 μm) were stained with H&E and Masson trichrome staining to evaluate the amount and density of collagen.

[2] = system: Tracheas of adult Wistar rats; test: Tissue damage due to barotrauma ex vivo (tracheal rings); assay type: cell-based; settings: tracheal rings bathed 15 minutes, balloon 4 atm 4 hours; compared with native FA
Description: In order to determine the effects of nitrated fatty acids on mechanical trauma to tracheal cells, an ex vivo model was established. Tracheas of adult Wistar rats sacrificed with thiopental given intraabdominally were carefully resected (harvested). Whole (intact) tracheas were cultured in DMEM 10 (Sigma) supplemented with antibiotic/antimycotic drugs for 48 hours at 37° C. Tracheas were cut into five pieces of equal size. One piece was immediately analyzed, two were bathed in 0.9% saline, one was bathed in a solution containing native fatty acid in SDS (1%), and one was bathed in a solution containing nitro fatty acid, respectively, for 15 minutes each. The inner diameters of the tracheal rings were measured. A non-compliant balloon catheter for use in vascular interventions was chosen, so that the nominal balloon diameter was 15-20% larger than that of the trachea. One tracheal ring pretreated with 0.9% saline was left untreated; the other prepared tracheal rings were mounted on the balloon catheter, which was inflated to a pressure of 4 atm thereafter. Balloons were kept inflated for 4 hours, while being positioned in the culture medium. Thereafter, the tracheal rings were further cultivated in separate vials for 24 hours. In a separate set of investigations, sense/antisense ODNs for HO-1 (Invitrogen) directed against the translation initiation codon in the HO-1 cDNA was used to inhibit hemoxydase-1 synthesis. The cells were transfected using the Superfect transfection reagent (Qiagen) before traumatization. In another set of experiments, the HO inhibitor SnPP IX (Porphyrin Products, London, UK) was added to the culture medium 6 hours before traumatization at a dose of 10 micromol.
For analysis, the rings were cut into small strips using a no touch technique. Viability was tested using a MTT assay and apoptosis using a TUNEL assay. Anti-HO-1 antibodies (StressGen, Tebu, Le-Perray-en-Yvelines, France) were measured by Western blot and immunohistochemistry.

TRPV-1 = target: T1, TRPV-1 (Mus musculus, UniProt Q704Y3); test: Signal transduction of receptors of the TRP-protein family in retinal slices; assay type: cell-based, mice; settings: 10 and 50 μmol, capsaicin 10 μmol or acid pH; compared with native FA
T1 construct: Whole retinas were isolated and cut into 100 μm slices using a tissue slicer; from tissue; host or cells: mouse retinal slices (100 μm)
Description: In order to determine the effect of nitrated fatty acids on receptor signal transduction, an in vitro model was used. Retinal slices from cadaver mice were prepared as described by Snellman and Nawy (Snellman J. Nawy S (2004). cGMP-dependent kinase regulates response sensitivity of the mouse on bipolar cell. J Neurosci 24:6621-6628). Whole retinas were isolated and cut into 100 μm slices using a tissue slicer and than transferred to the recording chamber. The chamber was continuously perfused with Ames media and oxygenated. Picrotoxin (100 μM), strychnine (10 μM), and TPMPA (50 μM) were added. Each nitro fatty acid was added in two experiments to achieve a final concentration of 10 μmol, and in another two experiments to achieve a final concentration of 50 μmol. In two experiments, the corresponding native fatty acid was added to achieve a final concentration of 10 and 50 μmol, and in two experiments saline solution was added which served as controls. Currents were measured via tissue electrodes and monitored throughout the investigation. After incubating the solution for 2 hours, the TRPV-1 agonist capsaicin was added to achieve a final concentration of 10 μmol. Experiments were performed using either 10 mmol Hepes or 10 mmol Mes adjusting the pH of the solution to 6.4 or 4.4, respectively. Furthermore, experiments were performed without or with preincubation (5 minutes) of the TRPV-1 antagonist capsazepine. The solution temperature was held constant at 35° C.
Also: key: 0: not superior to native FA (control); +: Superior to native FA; ++: superior to both; +++: outstanding effect.

T1 sequence (Q704Y3 whole entry): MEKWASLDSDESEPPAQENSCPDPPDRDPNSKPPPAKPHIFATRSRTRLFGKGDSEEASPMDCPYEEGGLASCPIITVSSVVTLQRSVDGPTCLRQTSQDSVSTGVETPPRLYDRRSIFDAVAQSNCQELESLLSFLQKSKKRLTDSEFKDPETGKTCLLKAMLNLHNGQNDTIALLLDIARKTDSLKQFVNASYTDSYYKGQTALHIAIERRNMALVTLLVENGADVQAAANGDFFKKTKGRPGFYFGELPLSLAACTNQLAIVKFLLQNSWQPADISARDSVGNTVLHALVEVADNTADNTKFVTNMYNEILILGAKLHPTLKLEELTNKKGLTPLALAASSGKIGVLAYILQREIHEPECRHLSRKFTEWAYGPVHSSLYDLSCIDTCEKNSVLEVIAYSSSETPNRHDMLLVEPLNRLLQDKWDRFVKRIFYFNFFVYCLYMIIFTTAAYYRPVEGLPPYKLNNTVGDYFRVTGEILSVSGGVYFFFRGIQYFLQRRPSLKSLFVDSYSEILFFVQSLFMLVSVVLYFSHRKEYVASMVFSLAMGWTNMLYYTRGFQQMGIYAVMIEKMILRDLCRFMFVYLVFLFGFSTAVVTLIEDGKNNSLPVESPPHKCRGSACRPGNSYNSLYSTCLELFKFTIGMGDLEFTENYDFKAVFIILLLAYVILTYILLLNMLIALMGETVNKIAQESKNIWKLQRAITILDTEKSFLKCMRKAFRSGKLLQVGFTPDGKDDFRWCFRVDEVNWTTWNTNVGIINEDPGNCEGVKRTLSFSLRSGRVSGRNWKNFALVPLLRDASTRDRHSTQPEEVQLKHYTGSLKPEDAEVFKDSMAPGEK

Compound: 5-nitro-eicosatrienoic acid [compound 4]
- Relative effect on profibrotic cytokines and collagen I on suture material [1]: +
- Relative effect on fibrogenesis (scar formation) in dermal wound healing (adult rats): +

Compound: CCCCCCCCCCC/C=C(/CCCCC(=O)O)[N+](=O)[O-] [compound 21, 6-nitro-cis-6-octadecenoic acid]
- Relative effect on profibrotic cytokines and collagen I on suture material [1]: +
- Relative effect on fibrogenesis (scar formation) in dermal wound healing (adult rats): ++

Compound: CCCCCC=CCC=C(CC=CCC=CCCCC(=O)O)[N+](=O)[O-] [compound 14, 11-nitro-5,8,11,14-eicosatrienoic acid]
- Relative effect on profibrotic cytokines and collagen I on suture material [1]: +
- Relative effect on fibrogenesis (scar formation) in dermal wound healing (adult rats): +
- Relative effect on tissue damage due to barotrauma [2]: +

Compound: CCCCC/C=C\C/C(=C\CCCCCCCC(=O)O)[N+](=O)[O-] [compound 2, 10-nitro-cis-linoleic acid]
- Relative effect on TRPV-1 signal transduction (current response) (TRPV-1): ++
- Relative effect on profibrotic cytokines and collagen I on suture material [1]: +++
- Relative effect on fibrogenesis (scar formation) in dermal wound healing (adult rats): +++
- Relative effect on tissue damage due to barotrauma [2]: +

Compound: CCCCCC/C=C(\CCCCCCCC(=O)O)[N+](=O)[O-] [compound 16, 9-nitro-9-trans-hexadecenoic acid]
- Relative effect on profibrotic cytokines and collagen I on suture material [1]: +
- Relative effect on fibrogenesis (scar formation) in dermal wound healing (adult rats): +

Compound: CCCCCCCC/C(=C\CCCCCCCC(=O)O)[N+](=O)[O-] [compound 12, 10-nitro-trans-oleic acid]
- Relative effect on profibrotic cytokines and collagen I on suture material [1]: +
- Relative effect on fibrogenesis (scar formation) in dermal wound healing (adult rats): 0

Compound: CC/C=C\C/C=C\C/C(=C/C/C=C\C/C=C\CCCCCC(=O)O)[N+](=O)[O-] [compound 7, 14-nitro-all-cis-7,10,13,16,19-docosapentaenoic acid]
- Relative effect on profibrotic cytokines and collagen I on suture material [1]: +
- Relative effect on fibrogenesis (scar formation) in dermal wound healing (adult rats): 0

Compound: CCCCCCCC/C=C(/CCCCCCCCCCCC(=O)O)[N+](=O)[O-] [compound 17, 13-nitro-cis-13-docosenoic acid]
- Relative effect on profibrotic cytokines and collagen I on suture material [1]: +
- Relative effect on fibrogenesis (scar formation) in dermal wound healing (adult rats): +

Compound: CCC=CCC=C(CC=CCC=CCC=CCC=C(CCC(=O)O)[N+](=O)[O-])[N+](=O)[O-] [compound 19, 4,16-nitro-docosahexaenoic acid]
- Relative effect on profibrotic cytokines and collagen I on suture material [1]: +
- Relative effect on fibrogenesis (scar formation) in dermal wound healing (adult rats): +

Compound: CCCCCCCC/C=C(\CCCCCCCC(=O)O)[N+](=O)[O-] [compound 9, 9-nitro-trans-oleic acid]
- Relative effect on profibrotic cytokines and collagen I on suture material [1]: +
- Relative effect on fibrogenesis (scar formation) in dermal wound healing (adult rats): +

Compound: CCCCCCCC/C=C(/CCCCCCCC(=O)O)[N+](=O)[O-] [compound 1, 9-nitro cis-oleic acid]
- Relative effect on TRPV-1 signal transduction (current response) (TRPV-1): ++
- Relative effect on profibrotic cytokines and collagen I on suture material [1]: ++
- Relative effect on fibrogenesis (scar formation) in dermal wound healing (adult rats): ++
- Relative effect on tissue damage due to barotrauma [2]: ++

Compound: CCCCCCCC/C(=C/CCCCCCCC(=O)O)[N+](=O)[O-] [compound 3, 10-nitro-cis-oleic acid]
- Relative effect on TRPV-1 signal transduction (current response) (TRPV-1): ++
- Relative effect on profibrotic cytokines and collagen I on suture material [1]: ++
- Relative effect on fibrogenesis (scar formation) in dermal wound healing (adult rats): ++
- Relative effect on tissue damage due to barotrauma [2]: +

Compound: CCCCCC=CCC=C(CC=CC/C=C\CCCC(=O)O)[N+](=O)[O-] [compound 22, 11-nitro-cis-5,8,11,14-eicosatetraenoic acid]
- Relative effect on TRPV-1 signal transduction (current response) (TRPV-1): +
- Relative effect on profibrotic cytokines and collagen I on suture material [1]: +
- Relative effect on fibrogenesis (scar formation) in dermal wound healing (adult rats): ++
- Relative effect on tissue damage due to barotrauma [2]: +

Compound: CCCCCCCC/C=C(/CCCCCCCCCCCCCC(=O)O)[N+](=O)[O-] [compound 8, 15-nitro-cis-15-tetracosenoic acid]
- Relative effect on profibrotic cytokines and collagen I on suture material [1]: +
- Relative effect on fibrogenesis (scar formation) in dermal wound healing (adult rats): +
- Relative effect on tissue damage due to barotrauma [2]: +

Compound: CCCCCC/C=C(/CCCCCCCC(=O)O)[N+](=O)[O-] [compound 13]
- Relative effect on profibrotic cytokines and collagen I on suture material [1]: +
- Relative effect on fibrogenesis (scar formation) in dermal wound healing (adult rats): +

Compound: 9,10-nitro-trans-oleic acid [compound 15]
- Relative effect on profibrotic cytokines and collagen I on suture material [1]: +
- Relative effect on fibrogenesis (scar formation) in dermal wound healing (adult rats): +
- Relative effect on tissue damage due to barotrauma [2]: +

Compound: CCCCC=C(C=CC=CCCCCCCCC(=O)O)[N+](=O)[O-] [compound 11, 13-nitro-octadeca-9,11,13-trienoic acid]
- Relative effect on profibrotic cytokines and collagen I on suture material [1]: 0
- Relative effect on fibrogenesis (scar formation) in dermal wound healing (adult rats): +
- Relative effect on tissue damage due to barotrauma [2]: +

Compound: CC/C=C\C/C=C\C/C=C(/CCCCCCCC(=O)O)[N+](=O)[O-] [compound 6, 9-nitro-all-cis-9-12,15-octadecatrienoic acid]
- Relative effect on TRPV-1 signal transduction (current response) (TRPV-1): +
- Relative effect on profibrotic cytokines and collagen I on suture material [1]: +
- Relative effect on fibrogenesis (scar formation) in dermal wound healing (adult rats): ++
- Relative effect on tissue damage due to barotrauma [2]: +

Compound: CCCCC/C=C(/C/C=C\C/C=C(/C/C=C\CCCC(=O)O)[N+](=O)[O-])[N+](=O)[O-] [compound 18, 8,14-nitro-cis-5,8,11,14-eicosatetraenoic acid]
- Relative effect on profibrotic cytokines and collagen I on suture material [1]: 0
- Relative effect on fibrogenesis (scar formation) in dermal wound healing (adult rats): +

Compound: 9,10-nitro-cis-oleic acid [compound 10]
- Relative effect on TRPV-1 signal transduction (current response) (TRPV-1): ++
- Relative effect on profibrotic cytokines and collagen I on suture material [1]: +++
- Relative effect on fibrogenesis (scar formation) in dermal wound healing (adult rats): ++
- Relative effect on tissue damage due to barotrauma [2]: ++

Compound: CCCCC/C=C(/C/C=C\C/C=C\C/C=C\C/C=C\CCC(=O)O)[N+](=O)[O-] [compound 5, 16-nitro-all-cis-4,7,10,13,16-docosapentaenoic acid]
- Relative effect on profibrotic cytokines and collagen I on suture material [1]: +
- Relative effect on fibrogenesis (scar formation) in dermal wound healing (adult rats): 0
